From patent US9296758B2, “2-quinolinyl-acetic acid derivatives as HIV antiviral compounds” (GILEAD SCIENCES, INC., priority 2010, dated 2016)

System: HIV-IIIb
Experiment: Test A: Antiviral Assays in MT4 Cells
Format: cell-based
Conditions: MT-4 cells infected with HIV-IIIb (0.004 m.o.i.), 5 days of incubation, CellTiter-Glo chemiluminescence readout
Protocol: Test A: Antiviral Assays in MT4 Cells For the antiviral assay utilizing MT-4 cells, 0.4 μL of 189X test concentration of 3-fold serially diluted compound in DMSO was added to 40 μL of cell growth medium (RPMI 1640, 10% FBS, 1% penicillin/Streptomycin, 1% L-Glutamine, 1% HEPES) in each well of 384-well assay plates (10 concentrations) in quadruplicate. 1 mL aliquots of 2×10e6 MT-4 cells are pre-infected for 1 and 3 hrs respectively, @ 37° C. with 25 μL (MT4) or of either cell growth medium (mock-infected) or a fresh 1:250 dilution of an HIV-IIIb concentrated ABI stock (0.004 m.o.i. for MT4 cells). Infected and uninfected cells are diluted in cell growth medium and 35 uL of 2000 (for MT4) cells is added to each well of the assay plates. Assay plates were then incubated in a 37° C. incubator. After 5 days of incubation, 25 μl of 2× concentrated CellTiter-Glo™ Reagent (catalog #G7573, Promega Biosciences, Inc., Madison, Wis.) was added to each well of the assay plate. Cell lysis was carried out by incubating at room temperature for 2-3 min and then chemiluminescence was read using the Envision reader (PerkinElmer).

[1] = Human immunodeficiency virus 1, IIIB, MT4, 120 h

Structure (SMILES)	EC50	EC50 [1]
Cc1ccc2c(-c3ccc4c5c(cccc35)CCO4)c([C@H](OC(C)(C)C)C(=O)O)c(C)cc2n1 (single isomer, unassigned) [Compound 102B]	0.11 µM	–
Cc1ccc2c(-c3ccc4c5c(ccnc35)CCO4)c([C@H](OC(C)(C)C)C(=O)O)c(C)cc2n1 [Compound 6D, (S)-2-tert-butoxy-2-((R)-5-(2,3-dihydropyrano[4,3,2-de]quinolin-7-yl)-2,7-dimethylquinolin-6-yl)acetic acid]	0.02 µM	–
Cc1cc2c(ccc3nccn32)c(-c2ccc(Cl)cc2)c1[C@H](OC(C)(C)C)C(=O)O [Compound 62, (S)-2-tert-Butoxy-2-(6-(4-chlorophenyl)-8-methylimidazo[1,2-a]quinolin-7-yl)acetic acid]	–	0.072 µM
Cc1cc2c(ccc(C)[n+]2[O-])c(-c2ccc3c4c(ccnc24)CCO3)c1[C@H](OC(C)(C)C)C(=O)O [Compound 22, (R)-6-((S)-tert-butoxy(carboxy)methyl)-5-(2,3-dihydropyrano[4,3,2-de]quinolin-7-yl)-2,7-dimethylquinoline 1-oxide]	–	1.07 µM
Cc1cc2nc(-c3cccs3)ccc2c(-c2ccc3c4c(ccnc24)CCO3)c1[C@H](OC(C)(C)C)C(=O)O [Compound 69, (S)-2-tert-butoxy-2-((R)-5-(2,3-dihydropyrano[4,3,2-de]quinolin-7-yl)-7-methyl-2-(thiophen-2-yl)quinolin-6-yl)acetic acid]	0.082 µM	–
Cc1cc2nc(CCC3CC3)ccc2c(-c2ccc(Cl)cc2)c1[C@H](OC(C)(C)C)C(=O)O [Compound 39, (S)-2-tert-butoxy-2-(5-(4-chlorophenyl)-2-(2-cyclopropylethyl)-7-methylquinolin-6-yl)acetic acid]	–	0.011 µM
CNc1ccc2c(-c3ccc(Cl)cc3)c([C@H](OC(C)(C)C)C(=O)O)c(C)cc2n1 [Compound 31, (S)-2-tert-butoxy-2-(5-(4-chlorophenyl)-7-methyl-2-(methylamino)quinolin-6-yl)acetic acid]	–	0.105 µM
Cc1cc2nc(C(=O)N(C)C)ccc2c(-c2ccc(Cl)cc2)c1[C@H](OC(C)(C)C)C(=O)O [Compound 16, (S)-2-tert-Butoxy-2-(5-(4-chlorophenyl)-2-(dimethylcarbamoyl)-7-methylquinolin-6-yl)acetic acid]	–	0.22 µM
Cc1cc2nc(N(C)C)ccc2c(-c2ccc(Cl)cc2)c1[C@H](OC(C)(C)C)C(=O)O [Compound 32, (S)-2-tert-Butoxy-2-(5-(4-chlorophenyl)-2-(dimethylamino)-7-methylquinolin-6-yl)acetic acid]	–	0.108 µM
Cc1cc2nc(OCc3ccccc3)ccc2c(-c2ccc(Cl)cc2)c1[C@H](OC(C)(C)C)C(=O)O [Compound 65A, (S)-2-(2-(benzyloxy)-5-(4-chlorophenyl)-7-methylquinolin-6-yl)-2-tert-butoxyacetic acid]	–	0.085 µM
Cc1cc2nc(-c3ccccc3)ccc2c(-c2ccc3c4c(ccnc24)CCO3)c1[C@H](OC(C)(C)C)C(=O)O (atropisomer, axis not shown) [Compound 57, (S)-2-tert-Butoxy-2-((R)-5-(2,3-dihydropyrano[4,3,2-de]quinolin-7-yl)-7-methyl-2-phenylquinolin-6-yl)acetic acid]	–	0.02 µM
Cc1cc2nc(-c3nccn3C)ccc2c(-c2ccc3c4c(ccnc24)CCO3)c1[C@H](OC(C)(C)C)C(=O)O (atropisomer, axis not shown) [Compound 84, (S)-2-tert-Butoxy-2-((R)-5-(2,3-dihydropyrano[4,3,2-de]quinolin-7-yl)-7-methyl-2-(1-methyl-1H-imidazol-2-yl)quinolin-6-yl)acetic acid]	–	0.33 µM
Cc1cc2nc(C3CCCCC3)ccc2c(-c2ccc3c4c(ccnc24)CCO3)c1[C@H](OC(C)(C)C)C(=O)O (atropisomer, axis not shown) [Compound 52, (S)-2-tert-Butoxy-2-((R)-2-cyclohexyl-5-(2,3-dihydropyrano[4,3,2-de]quinolin-7-yl)-7-methylquinolin-6-yl)acetic acid]	–	0.025 µM
Cc1cccc(C)c1-c1ccc2c(-c3ccc4c5c(ccnc35)CCO4)c([C@H](OC(C)(C)C)C(=O)O)c(C)cc2n1 [Compound 54, (S)-2-tert-Butoxy-2-((R)-5-(2,3-dihydropyrano[4,3,2-de]quinolin-7-yl)-2-(2,6-dimethylphenyl)-7-methylquinolin-6-yl)acetic acid]	–	0.087 µM
Cc1cc2c(ccc3nc(C(C)C)cn32)c(-c2ccc3c4c(ccnc24)CCO3)c1[C@H](OC(C)(C)C)C(=O)O [Compound 60, (S)-2-tert-Butoxy-2-((R)-6-(2,3-dihydropyrano[4,3,2-de]quinolin-7-yl)-2-isopropyl-8-methylimidazo[1,2-a]quinolin-7-yl)acetic acid]	–	0.305 µM
Cc1ccc2c(-c3ccc4c(c3Cl)NCCO4)c([C@H](OC(C)(C)C)C(=O)O)c(C)cc2n1 [Compound 89, (S)-2-tert-Butoxy-2-((R)-5-(5-chloro-3,4-dihydro-2H-benzo[b][1,4]oxazin-6-yl)-2,7-dimethylquinolin-6-yl)acetic acid]	0.042 µM	–
Cc1cc2nc(C#Cc3ccccc3)ccc2c(-c2ccc(Cl)cc2)c1[C@H](OC(C)(C)C)C(=O)O [Compound 37A, (S)-2-tert-butoxy-2-(5-(4-chlorophenyl)-7-methyl-2-(phenylethynyl)quinolin-6-yl)acetic acid]	–	0.036 µM
Cc1cc2c(ccc3nnnn32)c(-c2ccc(Cl)cc2)c1[C@H](OC(C)(C)C)C(=O)O [Compound 64, (S)-2-tert-butoxy-2-(6-(4-chlorophenyl)-8-methyltetrazolo[1,5-a]quinolin-7-yl)acetic acid]	–	0.29 µM
CNCc1ccc2c(-c3ccc(Cl)cc3)c([C@H](OC(C)(C)C)C(=O)O)c(C)cc2n1 [Compound 10, (S)-2-tert-Butoxy-2-(5-(4-chlorophenyl)-7-methyl-2-((methylamino)methyl)quinolin-6-yl)acetic acid]	–	0.897 µM
Cc1cc2nc(NCc3ccncc3)ccc2c(-c2ccc(Cl)cc2)c1[C@H](OC(C)(C)C)C(=O)O [Compound 33, (S)-2-tert-Butoxy-2-(5-(4-chlorophenyl)-7-methyl-2-(pyridin-4-ylmethylamino)quinolin-6-yl)acetic acid]	–	0.095 µM
Cc1cc2nc(CCC3CC3)ccc2c(-c2ccc3c4c(ccnc24)CCO3)c1[C@H](OC(C)(C)C)C(=O)O (atropisomer, axis not shown) [Compound 43, (S)-2-tert-Butoxy-2-((R)-2-(2-cyclopropylethyl)-5-(2,3-dihydropyrano[4,3,2-de]quinolin-7-yl)-7-methylquinolin-6-yl)acetic acid]	–	0.027 µM
Cc1cc2nc(C#Cc3ccccc3)ccc2c(-c2ccc3c4c(ccnc24)CCO3)c1[C@H](OC(C)(C)C)C(=O)O (atropisomer, axis not shown) [Compound 40, (S)-2-tert-butoxy-2-((R)-5-(2,3-dihydropyrano[4,3,2-de]quinolin-7-yl)-7-methyl-2-(phenylethynyl)quinolin-6-yl)acetic acid]	–	0.051 µM
CCc1ccc2c(-c3ccc(Cl)cc3)c([C@H](OC(C)(C)C)C(=O)O)c(C)cc2n1 [Compound 26, (S)-2-tert-butoxy-2-(5-(4-chlorophenyl)-2-ethyl-7-methylquinolin-6-yl)acetic acid]	–	0.045 µM
Cc1cc2nc(-c3ccc(Cl)cc3)ccc2c(-c2ccc(Cl)cc2)c1[C@H](OC(C)(C)C)C(=O)O [Compound 27, (S)-2-(2,5-bis(4-chlorophenyl)-7-methylquinolin-6-yl)-2-tert-butoxyacetic acid]	–	0.023 µM
